From US5425935A, “Imaging of infections” (British Technology Group Limited, priority 1991, dated 1995)
One block for each compound: values may come before it.

Assays:
[1] = system: Staphylococcus aureus (SA); assay: Take up of Tc-99m complexes by Staphylococcus aureus (SA), percentage radionuclide retained; type: cell-based; details: for percent radionuclide retained in the microorganism: 4 hours' incubation, purified complexes
[2] = system: Pseudomonas aboubinoba (PA); assay: Take up of Tc-99m complexes by Pseudomonas aboubinoba (PA), percentage radionuclide retained; type: cell-based; details: for percent radionuclide retained in the microorganism: 4 hours' incubation, purified complexes
[3] = Extent of complexation with Tc-99m prior to purification; type: physicochemical
Procedure: A further sample of Tc-99m-CIP complex was obtained as generally described in Example 1. Samples of Tc-99m complexed ofloxacin (obtained in powder form from Hoechst) and norfloxacin (obtained in powder form from Merck Sharpe & Dohme) were obtained as described for ciprofloxacin. Prior to purification, it was determined that the extent of complexation percent was as follows: […]

Escherichia coli (EC) = assay: Take up of Tc-99m complexes by Escherichia coli (EC), percentage radionuclide retained; type: cell-based; details: for percent radionuclide retained in the microorganism: 4 hours' incubation, purified complexes
[4] = 2 hr. incubation, not further purified
[5] = 4 hr. incubation, not further purified
[6] = 21 hr. incubation, CIP not further purified

extent of complexation percent [3]: 88.5%
Compound: CC1COc2c(N3CCN(C)CC3)c(F)cc3c(=O)c(C(=O)O)cn1c23 (stereo not drawn) [ofloxacin]
percent radionuclide retained in the microorganism [1]: 76.94%
percent radionuclide retained in the microorganism [2]: 79.39%
percent radionuclide retained in the microorganism (Escherichia coli (EC)): 77.95%

extent of complexation percent [3]: 76.5%
Compound: CCn1cc(C(=O)O)c(=O)c2cc(F)c(N3CCNCC3)cc21 [norfloxacin]
percent radionuclide retained in the microorganism [1]: 37.86%
percent radionuclide retained in the microorganism [2]: 44.53%
percent radionuclide retained in the microorganism (Escherichia coli (EC)): 48.28%

Compound: O=C(O)c1cn(C2CC2)c2cc(N3CCNCC3)c(F)cc2c1=O [Tc-99m-ciprofloxacin, metal not drawn]
percentage radionuclide retained in the microorganisms [1, 4]: 17.24 percentage
percent radionuclide retained in the microorganism [1]: 58.47%
percentage radionuclide retained in the microorganisms [1, 5]: 14.63 percentage
percentage radionuclide retained in the microorganisms [1, 6]: 15.08 percentage
percentage radionuclide retained in the microorganisms [2, 4]: 24.14 percentage
percent radionuclide retained in the microorganism [2]: 50.20%
percentage radionuclide retained in the microorganisms [2, 5]: 16.67 percentage
percentage radionuclide retained in the microorganisms [2, 6]: 21.32 percentage
extent of complexation percent [3]: 51.7%
percentage radionuclide retained in the microorganisms (Escherichia coli (EC); [4]): 15.78 percentage
percent radionuclide retained in the microorganism (Escherichia coli (EC)): 43.89%
percentage radionuclide retained in the microorganisms (Escherichia coli (EC); [5]): 11.72 percentage
percentage radionuclide retained in the microorganisms (Escherichia coli (EC); [6]): 12.90 percentage
